Experimental data from patent US9415107B2, “Compositions and methods for the treatment of addiction and other neuropsychiatric disorders” (priority 2005, dated 2016).
Entries after “also recorded” stand apart in the source; their conditions may differ.

Columns and labels:
[1] = tested on: adult male Wistar rats; experiment: Cue-induced reinstatement of extinguished cocaine seeking (model of relapse); type: in vivo, rat; settings: for reinstatement of extinguished cocaine seeking: pretreatment with the drug alone, general statement
Source text: In our model, rats were exposed to alternating 15-minute periods of access to cocaine self-administration and food reinforcement. Food was used to control for potential nonspecific, ataxis effects of the drugs and combinations. […] The other preclinical model we used is the cue-induced reinstatement of extinguished cocaine seeking model of relapse. In this model, rats are trained to self-administer cocaine and the ability of conditioned cues in the environment to reinstate extinguished responding is assessed and taken as a measure of relapse.
The experiments described herein were designed to investigate whether or not drug combinations identified as effective in reducing cocaine self-administration would also block the ability of conditioned cues to reinstate extinguished cocaine-seeking behavior. Adult male Wistar rats were implanted with chronic jugular catheters and trained to self-administer cocaine (0.25 mg/kg/infusion) by pressing one of the response levers in the experimental chamber (i.e., the “active” or “cocaine” lever) under a fixed-ratio four (FR4) schedule of reinforcement during daily 2-hour sessions conducted 5 days per week. At the start of each session, both levers were extended into the chamber and the stimulus light above the active lever was illuminated to indicate the availability of cocaine. […] A 20-second timeout period followed each infusion. The stimulus light above the active lever and the house light and tone compound stimulus were extinguished during the timeout period, and the light above the active lever was illuminated once the timeout ended. When responding on the active lever varied less than 20% for two consecutive days, the response requirement was increased to FR2. When similar stability was observed under the FR2 schedule or reinforcement, the response requirement was increased to the final ratio of four. The criteria for stable responding under the FR4 schedule of reinforcement was a minimum of 10 days of exposure to this schedule that concluded with at least three consecutive days when responding varied by less than 10%. […] Once stable cocaine self-administration was observed, rats were exposed to extinction; the rats were placed into the behavioral chambers, but responding on the “cocaine” (active) lever produced no programmed consequences. Extinction training continued until responding decreased to less than 20% of baseline self-administration. Then reinstatement testing commended. The rats were placed into the experimental chambers, both response levers were extended into the chamber, and the stimulus light above the “active” lever was illuminated as during self-administration training. […] Responding on the “active” lever during reinstatement testing was taken as an index of cocaine-seeking behavior. Each experimental group consisted of 8 to 10 rats.

[2] = tested on: adult male Wistar rats; experiment: Intravenous cocaine self-administration under a multiple, alternating schedule of food reinforcement and cocaine self-administration; type: in vivo, rat; settings: for cocaine self-administration (number of infusions): ip pretreatment; for cocaine self-administration: pretreatment with the drug alone, general statement
Procedure: Adult male Wistar rats were trained under a multiple, alternating schedule of cocaine and food self-administration. This schedule consisted of alternating periods of cocaine access and food reinforcement. In some instances, as described further below, three doses of cocaine (0.125, 0.25, or 0.50 mg/kg/infusion) were tested. Rats were also periodically trained with saline substitution (cocaine extinction) and food extinction during the same session.
More specifically, adult male Wistar rats were implanted with chronic jugular catheters. Following recovery from surgery, the rats were trained to respond under a multiple, alternating schedule of food reinforcement and cocaine self-administration. Food-maintained responding was used to control for the non-specific motor effects of the various treatments. During the food component of the schedule, the stimulus light located above the food response lever was illuminated to indicate the availability of food reinforcement. […] A 25-second timeout followed the delivery of each food pellet. During this timeout, the stimulus light was darkened and responses on the food lever were counted but had no scheduled consequences. Responding on the other (cocaine) lever during the food component also had no scheduled consequences. […] Following 15 minutes of access to food, all stimulus lights in the chamber were darkened for a 1-minute timeout. Following the timeout, the stimulus light above the cocaine response lever was illuminated to indicate the availability of cocaine (0.125, 0.25, or 0.5 mg/kg/infusion). […] A 20-second timeout period followed each infusion. […] After 15 minutes of access to cocaine and a 1-minute timeout, the rats were again allowed 15 minutes access to the food component of the schedule. Access to food and cocaine alternated in this manner every 15 minutes during the two hour behavioral sessions so that each rat was exposed to food and cocaine for four 15-minute periods each. Each behavioral session began with 15 minutes access to either food or cocaine, and this alternated daily. Stable baselines of responding were established when the total number of cocaine and food presentations, as well as the number of presentations during each of the four exposures each session, varied less than 10% for three consecutive sessions. At least three different doses of cocaine (e.g., 0.125, 0.25, and 0.5 mg/kg/infusion) were tested. Rats were first trained to self-administer 0.25 mg/kg/infusion, our standard dose of cocaine. When responding stabilized, the dose was changed to 0.125 or 0.5 mg/kg/infusion as appropriate.
Once stable baselines of responding were obtained, dose-response curves for the various compounds were individually generated for each rat. Rats were treated with each dose at least twice with a minimum of two days of baseline cocaine self-administration interspersed between each test. Each group of rats was tested with only two of the test compounds to minimize potential carryover effects. […] This rationale guided the selection of the doses of each of the compounds in the combination studies. Each experimental group consisted of between 8 and 10 rats.

[3] = Pharmacokinetic interaction between cocaine, metyrapone and oxazepam (plasma concentrations by GCMS); settings: presence of iv cocaine
Procedure: Adult male Wistar rats (90 to 120 days old) were implanted with chronic, indwelling jugular catheters and were allowed to recover from surgery. […] Thirty minutes following the drug combination or vehicle injection, the rats received intravenous injections of cocaine (0.25 mg/kg/infusion) every 2 minutes for 1 hour. After the final injection of cocaine, blood was collected from the catheter for the analysis of cocaine and its metabolites ecgonine methyl ester and benzoylecgonine. […] All drug concentrations were determined using GCMS procedures.

[4] = tested on: plasma corticosterone; experiment: Plasma corticosterone after metyrapone pretreatment; settings: pretreatment with metyrapone
[5] = tested on: male Wistar rats; experiment: Forced Swim Test (FST), animal model of depression
[6] = low, ineffective dose of the drug alone

Row | SMILES | reinstatement of extinguished cocaine seeking [1] | cocaine self-administration (number of infusions) ([2]; high dose of the drug alone) | cocaine self-administration (number of infusions) [2, 6] | cocaine self-administration [2] | effect on plasma concentrations of metyrapone or oxazepam [3] | minimally effective dose that reduced cocaine self-administration by at least 50% without affecting food-maintained responding ([2]; drug alone) | cocaine seeking (responding on the active lever during reinstatement) ([1]; chronic metyrapone 50 mg/kg, ip, once per day for 14 days) | plasma corticosterone [4] | immobility time in the FST ([5]; chronic administration, Met50 group (metyrapone 50 mg/kg alone)) | mean immobility time relative to vehicle (tolerance) ([5]; chronically treated groups that received only Ox or Met)
1 | CCCCN(CC)c1nc(C)nc2c1c(C)cn2-c1c(C)cc(C)cc1C [CP-154,526] | decrease | reduced cocaine self-administration | did not significantly affect cocaine self-administration | decrease |  |  |  |  |  | 
2 | Cc1nnc2n1-c1ccc(Cl)cc1C(c1ccccc1)=NC2 [alprazolam] | decrease | reduced cocaine self-administration | did not significantly affect cocaine self-administration | decrease |  |  |  |  |  | 
3 | COC(=O)[C@H]1[C@@H](OC(=O)c2ccccc2)C[C@@H]2CC[C@H]1N2C [cocaine] |  |  |  |  | did not affect |  |  |  |  | 
4 | CC(=O)N1CCN(c2ccc(OCC3COC(Cn4ccnc4)(c4ccc(Cl)cc4Cl)O3)cc2)CC1 (centres unmarked) [ketoconazole] | decrease |  | no effect; also recorded: did not significantly affect cocaine self-administration | decrease |  | 25 mg/kg |  |  |  | 
5 | CC(C)(C(=O)c1cccnc1)c1cccnc1 [metyrapone] | decrease | reduced cocaine self-administration | did not significantly affect cocaine self-administration; also recorded: no longer affected cocaine self-administration | decrease; also recorded: significant dose-related decreases |  |  | reduced cocaine seeking to levels seen when only saline was delivered | significant dose-related decreases | showed a lessening of immobility time | equal to or exceeded the vehicle
6 | NCc1cc(=O)[nH]o1 [muscimol] |  | reduced cocaine self-administration | did not significantly affect cocaine self-administration |  |  |  |  |  |  | 
